Assays:
[1] = Acid dissociation constant (pKa) by photometric titration in aqueous media; format: physicochemical
Protocol: The Acid Dissociation Constant of the EE-β-CD complex in aqueous media was determined.
In aqueous solution, the ethinyl estradiol-β-cyclodextrin complex dissociates into its components according to the law of mass action. […] The pKa was measured by a photometric titration method following the guidance given in the Environmental Assessment Technical Handbook.

[2] = format: physicochemical
Protocol: The molar content of each degradation products is expressed relatively to the initial molar content of ethinyl estradiol that was added to each formulation. Four formulations as well as the pure ethinyl estradiol and the ethinyl estradiol β-cyclodextrin complex were investigated.

| acid dissociation constant pKa [1] | pKa ([1]; acid dissociation constant pKa) | total known degradation products (% of initial content of EE) [2] | Compound |
| --- | --- | --- | --- |
| approx. 10.25 | 10.25 ± 0.04 | – | C#C[C@]1(O)CC[C@H]2[C@@H]3CCc4cc(O)ccc4[C@H]3CC[C@@]21C [EE, ethinyl estradiol] |
| – | – | 0.385 % of initial content of EE | ethinyl estradiol-β-Cyclodextrin complex [EE-β-CD] |

Source: patent publication US7163931B2, “Compositions of estrogen-cyclodextrin complexes” (Schering Aktiengesellchaft, priority 2000, dated 2007)
